Entries after “also recorded” stand apart in the source; their conditions may differ.
Tests used:
[1] = system: senescent human IMR-90 fibroblast cells; format: cell-based; conditions: increasing concentrations (FIGS. 6A-C, 12A-C)
Method in brief: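 Senescence was induced by etoposide at […] for 48 h, with the phenotype present 7 days later, or by H-RasG12 or long-term passaging. Cells grown at 5% oxygen were transfected with DNAzymes by Lipofectamine 2000, and survival was scored 3-6 days later by PrestoBlue relative to Lipofectamine-only control.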

[2] = system: cancer cell lines (HepG2, A549, Panc1, HCT-116); assay: Chemotherapy and DNAzyme combination, several cancer cell lines; format: cell-based; conditions: therapy induced senescence, viability 72 hours following treatment (FIG. 12F)
Source text: PANC-1 cells were maintained in DMEM medium supplemented with 10% fetal bovine serum, 1% penicillin-streptomycin and 1% sodium pyruvate. HCT116 cells were maintained in McCoy's 5A medium supplemented with 10% fetal bovine serum and 1% penicillin-streptomycin. A549 cells were maintained in F-12K Medium supplemented with 10% fetal bovine serum and 1% penicillin-streptomycin. HepG2 cell were maintained Eagle's Minimum Essential Medium, supplemented in 10% fetal bovine serum, 1% penicillin-streptomycin and 1% sodium pyruvate. All cancer cell lines were incubated in 5% C02 at 37° C.
Cancer cell lines were seeded in 96 well plates 24 hours before treatment. Chemotherapies were applied at indicated concentrations either alone or as combination with DNAzyme-lipofectamine complex. 72 hours following treatment, cell viability was measured using Prestoblue® reagent. Chemotherapies were diluted in cell medium to the indicated concentrations. 24 hours following seeding, culture medium was replaced with chemotherapy containing medium, immediately followed by transfection of DNAzyme as described above. 72 hours following treatment, cell viability was measured using Prestoblue® reagent.
The following chemotherapies were used: Etoposide (Sigma), Palbociclib (Sigma), Doxorubicin (Sigma), Cisplatin (Sigma), ABT-263 (Selleckchem). All compounds were dissolved and stored according to manufacturer instructions.

p21 protein = p21 protein staining in HepG2 cells; format: cell-based, human; conditions: Etoposide alone or together with DNAzyme (FIGS. 15A-B)
Description: Alternatively, cells were fixed with 4% Formaldehyde for 15 minutes, permeabilized in 0.2% […] for 5 minutes and blocked with 2% bovine serum albumin (BSA) for 30 min in room temperature. Cells were then incubated with a primary or with a conjugated antibody over-night or for 3 hours respectively. For unconjugated antibodies, a corresponding fluorescently-labelled secondary antibody was added for 1 hour, followed by Hoechst counterstaining. Cells were washed with PBS three times following each step. Images were acquired using Nikon Eclipse Ti2 microscope at ×10 magnification.
Antibodies were diluted in blocking solution as indicated below: 53BP1 antibody (Novus biologicals NB100-304, 1:800), Phospho-histone H2AX antibody (Cell signaling #2577, 1:800), p21 Waf1/Cip1 antibody (Cell signaling #8865, 1:500), p16 antibody (Santa Cruz sc-56330, 1:200), Alexa Fluor-488 goat anti mouse (Thermo Fisher A11029, 1:1000).

[3] = DNAzyme stability analysis in BALF; format: in vitro ADME, mice
Description: DNAzyme stability was assessed by incubation with PBS, plasma and BALF (Bronchoalveolar Lavage Fluid). A comparison between unmodified and 3′Inverted dT modification was made. Following incubation for the indicated time points, samples were analyzed using gel electrophoresis. Quantification compared to time 0 was performed using Image Lab software (Bio Rad).

Substance: DNAzyme 1670: SEQ ID NO: 54: GGGAAAGGAggctagctacaacgaAAGGGGGAG (DNA GGGAAAGGAGGCTAGCTACAACGAAAGGGGGAG; DNA, backbone and methylation of C not given here)
- selectivity of killing, senescent versus growing IMR-90 cells [1]: wide range of selective doses
- efficacy of sub-clinical Etoposide in combination with DNAzyme [2]: comparable to that of clinical Etoposide dose
- p21 protein immunofluorescent staining in HepG2 cells (p21 protein): significant decrease in staining; also recorded: p21 upregulation is blocked
- stability in BALF of diseased (bleomycin) mice compared to naive BALF ([3]; FIG. 13C): lower
- start of reduction in size (below full length) in BALF ([3]; unmodified DNAzyme, from the start of incubation (FIG. 13A)): 24 h
- time to degradation / stability in BALF ([3]; with 3′ inverted dT modification versus unmodified (FIGS. 7B, 13C)): significantly increased

— patent US11879140B2, “P21 mRNA targeting DNAzymes” (1E Therapeutics Ltd., priority 2020, dated 2024)
